Earlier results as cited in patent US6617154B1, “Electroporation chamber including an electrode having a continuous, crystalline metal nitride coating” (MaxCyte, Inc., priority 1996, dated 2003).

Key:
[1] = experimental animals; DPG or its precursors
hemoglobin [2] = molecular target: T1, hemoglobin (Homo sapiens, UniProt P68871); settings: relative to DPG
hemoglobin [3] = molecular target: T1, hemoglobin; settings: pH 7.4, 37 degrees C
[4] = under ordinary circumstances, not bound to hemoglobin
[5] = tested on: mammalian erythrocyte membrane

T1 sequence (P68871 2-147 limits assumed): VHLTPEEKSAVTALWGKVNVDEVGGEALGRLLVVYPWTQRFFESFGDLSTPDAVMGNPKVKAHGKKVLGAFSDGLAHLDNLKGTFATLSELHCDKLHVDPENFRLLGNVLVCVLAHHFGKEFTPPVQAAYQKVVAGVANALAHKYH
T1 sequence (P69905 2-142 partner limits assumed): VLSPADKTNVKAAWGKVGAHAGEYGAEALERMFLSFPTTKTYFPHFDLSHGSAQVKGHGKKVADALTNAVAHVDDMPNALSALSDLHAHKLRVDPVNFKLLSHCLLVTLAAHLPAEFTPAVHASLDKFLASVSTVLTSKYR

**Q.** Which “duration of transient elevation of oxygen deposition” value [1] does the source give for `O=C(O)C(COP(=O)(O)O)OP(=O)(O)O` (centres unmarked) [DPG, 2,3-diphosphoglycerate] here?
**A.** The value was 6 to 12 h.

**Q.** Which results are given for `O=P(O)(O)O[C@H]1[C@H](OP(=O)(O)O)[C@@H](OP(=O)(O)O)[C@H](OP(=O)(O)O)[C@@H](OP(=O)(O)O)[C@H]1OP(=O)(O)O` [IHP, inositol hexaphosphate]?
**A.** affinity to hemoglobin, higher than DPG (hemoglobin [2]): 1000 fold; P50 of hemoglobin (hemoglobin [3]): ≤ 96.4 mm Hg; toxicity [4]: toxic; passage through the mammalian erythrocyte membrane [5]: unable to pass
